According to patent publication US20060292099A1, “Treatment of eye disorders with sirtuin modulators” (priority 2005, published 2006):
Values joined by “and” are separate entries in the source; they are usually repeats but may differ in a detail not shown here. Identical values can stand only once. Like-named read-outs stand apart in the source and are kept apart here.

What was measured:
[1] = tested on: retinal ganglion cells; details: animals, recent study (glaucoma background); cited from earlier work
[2] = tested on: retinal ganglion cells (RGCs); experiment: Retinal ganglion cell (RGC) counts in EAE optic neuritis model, resveratrol intravitreal; type: in vivo, SJL/J mice; details: for RGC numbers: EAE eyes with optic neuritis, 0.8 μl intravitreal days 0, 3, 7, 11, day 14
Method: (§1) The experimental design is diagrammed in FIG. 21.
Three test doses were diluted:
(§2) Retinas were diessected and whole-mounted for fluorescent microscopy. […] Optic nerves were dissected and processed for histology. […] RGCs were compared between PBS-treated and resveratrol-treated eyes with optic neuritis to determine whether resveratrol prevents loss of neurons.

[3] = tested on: EAE mice with optic neuritis; experiment: Clinical EAE score and incidence of optic neuritis, resveratrol intravitreal; type: in vivo, SJL/J mice; details: for Peak EAE Score For Individual Mice: five point scale
From the text: as §1
Mice were scored daily for clinical EAE on a five point scale: no disease=0; partial tail paralysis=0.5; tail paralysis or waddling gait=1.0; partial tail paralysis and waddling gait=1.5; tail paralysis and waddling gait=2.0; partial limb paralysis=2.5; paralysis of one limb=3.0; paralysis of one limb and partial paralysis of another=3.5; paralysis of two limbs=4.0; moribund state=4.5; death=5.0.
as §2

[4] = Measured resveratrol concentration in Captisol solutions and reconstitution of lyophilized product; type: physicochemical
Method: Lyophilized vials containing 10% Captisol control vehicle were also manufactured. […] Lyophilized vials containing 40% Captisol control vehicle were also manufactured.
The filtered solutions were dispensed into vials (1.0 mL solution into 3 mL vial, Wheaton #223684), and lyophilized. At the end of the lyophilization cycle, the vials were sealed under vacuum and a cap crimped over the septa.
The lyophilized resveratrol product was an off-white cake. The material reconstituted in ˜20 seconds after the addition of 1.0 mL water. […] The lyophilized control vehicle product was a white cake. The material reconstituted in ˜20 seconds after the addition of 1.0 mL water. The reconstituted control vehicle was clear, with no visible particulates, and having a pH of 5.82.
The solution was stirred for 35 minutes, followed by sonication for 1 hour. The solution was stirred for an additional 50 minutes, followed by sonication for an additional hour. At this point, solid material was still present in the sample. An aliquot was removed for analysis. […] Because the solution appeared cloudy at this time, three portions were separated to try alternate mixing methods. Approximately 200 mL was transferred to a 500 mL volumetric flask and was sonicated for 45 min, approximately 300 mL was vigorously mixed with an overhead mixer for 90 minutes, and approximately 100 mL was homogenized for 25 minutes. None of the three portions appeared clear. […] The portions were combined and were stirred at ambient temperature overnight protected from light. The following morning, using an aseptic technique in the laminar flow hood, the solution was sterile filtered via a Nalgene 90 mm filter unit (Cat# 167-0020; […]).

[5] = tested on: retinal ganglion cells (RGCs)
Method: (§3) Study outline: The neuroprotective effects of nicotinamide riboside were examined in EAE mice with optic neuritis. […] To induce EAE, mice were immunized several days later with 300 μg PLP emulsified in complete Freund's adjuvant (CFA), and control mice (without EAE) were mock-immunized with phosphate buffered saline (PBS) in CFA. All mice received 200 ng intraperitoneal pertussis toxin (PT) on the day of immunization (day 0) and again on day 2.
(§4) Eyes were treated with nicotinamide riboside by intravitreal (ivt) injections with a volume of 0.8 μl/injection of a stock solution of either 0.1 M or 0.4 M nicotinamide riboside in PBS (Groups 2, 4 and 5). […] Treament with nicotinamide riboside, as well as PBS control injections, were given ivt on days 0, 4, 7 and 11. Mice were scored daily for clinical EAE, and were sacrificed on day 14 by overdose with ketamine and xylazine.
(§5) Retinas were dissected and whole-mounted for fluorescent microscopy. RGC numbers were quantified by counting FG-labeled cells in 12 standardized fields in each retina. Optic nerves were dissected and processed for histology. Cut sections stained by H & E were evaluated for the presence of inflammatory cells to determine acute optic neuritis. RGCs were compared between PBS-treated and nicotinamide riboside-treated eyes with optic neuritis to determine whether nicotinamide riboside prevents loss of neurons.

[6] = tested on: EAE mice with optic neuritis; experiment: Incidence of optic neuritis (inflammatory cell infiltration of optic nerve) and clinical EAE, nicotinamide riboside; type: in vivo, SJL/J mice
Method: as §3, §4, §5

[7] = optic nerve, acute optic neuritis in EAE

In the case of `N=C(N)NN` [aminoguanidine], the “loss of retinal ganglion cells” value [1] is listed as “reduction in the loss of retinal ganglion cells”.

Work on `Oc1ccc(/C=C/c2cc(O)cc(O)c2)cc1` [resveratrol, 3,5,4′-Trihydroxy-trans-stilbene] yielded an RGC numbers ([2]; 38 μM resveratrol) of 452±136 RGCs, an RGC numbers ([2]; 77 μM resveratrol) of 585±198 RGCs and an RGC numbers ([2]; 600 μM resveratrol) of 644±148 RGCs. The “Toxicity to RGCs” value ([2]; mouse, in vivo) was “not toxic”, the “RGC numbers vs control eyes” value ([2]; non-EAE eyes treated with resveratrol vs control eyes) was “no difference” and the “Peak EAE Score For Individual Mice” value ([3]; Control (non-EAE) mice, 38 μM resveratrol intravitreal) was 0. The “Peak EAE Score For Individual Mice” value ([3]; Control (non-EAE) mice, 600 μM resveratrol intravitreal) was 0, the “Peak EAE Score For Individual Mice” value ([3]; EAE mice, 38 μM resveratrol intravitreal) was 1.5 and 3 (2×) and 0 and 5 and 2.5 and 1 (2×) and the “Peak EAE Score For Individual Mice” value ([3]; EAE mice, 77 μM resveratrol intravitreal) was 2 (4×) and 2.5 (3×) and 0 and 3.5 and 5 and 1.5. For the same molecule, the “Peak EAE Score For Individual Mice” value ([3]; EAE mice, 600 μM resveratrol intravitreal) was 2.5 and 2 (2×) and 5 and 4.5 and 1.5 and 0.5, the Inflammatory cell infiltration [3, 7] was “does not prevent” and the “Incidence of optic neuritis and clinical EAE vs controls” value ([3]; resveratrol treated mice vs controls) was “did not differ”. For the same molecule, the “concentration of resveratrol in solution” value ([4]; 10% Captisol lyophilisate reconstituted with 1.0 mL water, pH 5.91) was 14400 µM, the “concentration of resveratrol in solution” value ([4]; 10% Captisol, after 0.20 μm filtration, pH 4.83) was 14900 µM and the “concentration of resveratrol in solution” value ([4]; 10% Captisol, mixed 1 hour at ambient temperature, initial solution, pH 5.02 (target 20 mM)) was 15400 µM. For the same molecule, the “concentration of resveratrol in solution (HPLC)” value ([4]; 40% Captisol, after stirring and sonication, solid still present, pH 4.76 (target 175 mM)) was 55000 µM, the “concentration of resveratrol in solution” value ([4]; 40% Captisol, portion homogenized for 25 minutes) was 74000 µM and the “concentration of resveratrol in solution” value ([4]; 40% Captisol, stirred overnight at ambient temperature, sterile filtered) was 168000 µM.

With `NC(=O)c1ccc[n+]([C@@H]2O[C@H](CO)[C@@H](O)[C@H]2O)c1` [nicotinamide riboside] the “Toxicity to RGCs” value ([5]; mouse, in vivo) was “not toxic”, the “RGC numbers vs control eyes” value ([5]; non-EAE eyes treated with nicotinamide riboside (Group 2) vs control eyes (Group 1)) was “no difference” and the “Incidence of optic neuritis and clinical EAE vs controls” value ([6]; nicotinamide riboside treated mice vs controls) was “did not differ”. For the same molecule, the Inflammatory cell infiltration [6, 7] was “does not prevent”.
